Reference: patent US11236055B2 (Venenum Biodesign, LLC, priority 2016, dated 2022)

Columns and labels:
human TGR5 receptor = molecular target: T1, human TGR5 receptor (Homo sapiens, UniProt Q8TDU6); assay: Human TGR5 cAMP production assay; assay type: cell-based; conditions: human TGR5, luminescent cAMP assay; coded A-D; read-out: Human TGR5 Lum. cAMP Activity (EC50)
T1 construct: host or cells: CHO-K1 (hTGR5-CHO cells)
T1 sequence (Q8TDU6 1-330): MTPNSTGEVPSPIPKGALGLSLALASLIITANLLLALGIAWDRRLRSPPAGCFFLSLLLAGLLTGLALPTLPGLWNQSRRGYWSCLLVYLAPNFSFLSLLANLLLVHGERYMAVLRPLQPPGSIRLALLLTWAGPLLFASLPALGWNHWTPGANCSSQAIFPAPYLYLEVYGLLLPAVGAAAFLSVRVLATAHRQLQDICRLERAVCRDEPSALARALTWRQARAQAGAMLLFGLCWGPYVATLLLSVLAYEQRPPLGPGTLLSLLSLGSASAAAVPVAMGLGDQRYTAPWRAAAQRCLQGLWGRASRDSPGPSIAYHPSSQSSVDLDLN
Outline: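 CHO-K1 cells stably expressing human TGR5, with IBMX and cAMP antibody, were exposed to half-log serially diluted compound for 1 h at room temperature. cAMP measured by enzyme-fragment complementation luminescence (XS+ kit) after overnight incubation; EC50 values reported.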

mouse TGR5 receptor = molecular target: T2, mouse TGR5 receptor (Mus musculus, UniProt Q80SS6); assay: Mouse TGR5 cAMP production assay (HTRF, Cisbio cAMP HiRange); assay type: cell-based; conditions: HEK293-EBNA cells overexpressing mouse TGR5, HTRF cAMP HiRange; coded A-D
T2 construct: expressed in transfected cells; host or cells: HEK293-EBNA (293 c18, ATCC CRL10852), Hygromycin B selection
T2 sequence (Q80SS6 1-329): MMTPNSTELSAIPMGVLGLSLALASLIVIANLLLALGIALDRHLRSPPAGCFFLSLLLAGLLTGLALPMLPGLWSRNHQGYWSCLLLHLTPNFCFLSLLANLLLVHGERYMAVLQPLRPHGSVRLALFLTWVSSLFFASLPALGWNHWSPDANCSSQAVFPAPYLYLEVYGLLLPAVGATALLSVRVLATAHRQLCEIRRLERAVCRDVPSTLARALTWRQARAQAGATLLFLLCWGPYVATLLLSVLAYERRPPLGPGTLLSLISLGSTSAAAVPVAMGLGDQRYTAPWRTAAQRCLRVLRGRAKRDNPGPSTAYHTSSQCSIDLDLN
Outline: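 cAMP read by HTRF competition after 1 h room-temperature compound exposure of mouse TGR5-overexpressing HEK293-EBNA cells. Cells were suspended in serum-free DMEM containing 500 μM IBMX; compounds ran as 12-point half-log dilutions in duplicate; EC50 derived.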

SMILES | EC50 (human TGR5 receptor) | EC50 (mouse TGR5 receptor)
Cc1cnccc1-c1cccc([C@H](C)N(CCCC(=O)NCCNS(=O)(=O)NOC(C)(C)C)S(=O)(=O)c2cccc(Cl)c2C)c1 [Compound 37A] | < 100 nM | < 100 nM
Cc1cnccc1-c1cccc([C@H](C)NS(=O)(=O)c2ccccc2C(F)(F)F)c1 [Compound 5AR, (S)-N-(1-(3-(3-methylpyridin-4-yl)phenyl)ethyl)-2-(trifluoromethyl)benzenesulfonamide] | < 100 nM | 100 to 999 nM
COc1cccc(S(=O)(=O)N2CCN(C(=O)CS(=O)(=O)O)CC2c2cccc(-c3ccncc3C)c2)c1 (stereo not shown) [Compound 49AB, 2-(4-((3-methoxyphenyl)sulfonyl)-3-(3-(3-methylpyridin-4-yl)phenyl)piperazin-1-yl)-2-oxoethanesulfonic acid] | 100 to 999 nM | < 100 nM
COc1cnccc1-c1cccc(C(C)(C)NS(=O)(=O)c2ccc(C#N)cc2Cl)c1 [Compound 2BN] | 100 to 999 nM | 1000 to 30000 nM
CC[C@H](NS(=O)(=O)c1ccccc1C(F)(F)F)c1cccc(-c2ccc3nccn3c2)c1 [Compound 5AX, (S)-N-(1-(3-(imidazo[1,2-a]pyridin-6-yl)phenyl)propyl)-2-(trifluoromethyl)benzenesulfonamide] | 1000 to 30000 nM | 1000 to 30000 nM
CCc1cnccc1-c1cccc(C(C)(C)NS(=O)(=O)c2cccc(Cl)c2C)c1 [Compound 2BY] | < 100 nM | < 100 nM
Cc1cnsc1-c1cccc([C@H](C)N(CCCC(=O)O)S(=O)(=O)c2cccc(Cl)c2C)c1 [Compound 16AJ, (S)-4-(3-chloro-2-methyl-N-(1-(3-(4-methylisothiazol-5-yl)phenyl)ethyl)phenyl-sulfonamido)butanoic acid] | 1000 to 30000 nM | 1000 to 30000 nM
CCc1cnccc1-c1cccc([C@H](C)N(CCCC(=O)NCS(=O)(=O)O)S(=O)(=O)c2cccc(Cl)c2C)c1 [Compound 21AR, (S)-(4-(3-chloro-N-(1-(3-(3-ethylpyridin-4-yl)phenyl)ethyl)-2-methylphenylsulfonamido)butanamido)methanesulfonic acid] | < 100 nM | < 100 nM
Cc1cnccc1-c1cccc(C(C)N(CCCC(=O)NCCSO)S(=O)(=O)c2ccccc2C(F)(F)F)c1 (stereo not shown) [Compound 20BC, N-(2-(hydroxythio)ethyl)-4-(N-(1-(3-(3-methylpyridin-4-yl)phenyl)ethyl)-2-(trifluoromethyl)phenylsulfonamido)butanamide] | < 100 nM | 100 to 999 nM
Cc1cnccc1-c1cccc([C@H](C)N(CCCC(=O)O)S(=O)(=O)c2ccccc2C)c1 [Compound 16AD, (S)-4-(2-methyl-N-(1-(3-(3-methylpyridin-4-yl)phenyl)-ethyl)phenylsulfonamido)butanoic acid] | 100 to 999 nM | 100 to 999 nM
CC(=O)Nc1cc(-c2cccc(C(C)(C)NS(=O)(=O)c3cccc(C(F)(F)F)c3)c2)ccn1 [Compound 9, N-(4-(3-(2-(3-(trifluoromethyl)phenylsulfonamido)propan-2-yl)phenyl)pyridin-2-yl)acetamide] | 1000 to 30000 nM | 1000 to 30000 nM
Cc1cnccc1-c1cccc([C@H](C)N(CCCCC(=O)NCCOCCN)S(=O)(=O)c2cccc(Cl)c2C)c1 [Compound 20AT, (S)-N-(2-(2-aminoethoxy)ethyl)-5-(3-chloro-2-methyl-N-(1-(3-(3-methylpyridin-4-yl)phenyl)ethyl)phenylsulfonamido)pentanamide] | < 100 nM | 100 to 999 nM
Cc1cnccc1-c1cccc([C@H](CCCC#N)N(CCCC(=O)OC(C)(C)C)S(=O)(=O)c2cccc(Cl)c2C)c1 [Compound 15AC, (S)-tert-butyl 4-(3-chloro-N-(4-cyano-1-(3-(3-methylpyridin-4-yl)phenyl)butyl)-2-methylphenylsulfonamido) butanoate] | 100 to 999 nM | 1000 to 30000 nM
COc1cnccc1-c1cc(CNS(=O)(=O)c2cccc(C(F)(F)F)c2)ccn1 [Compound 1BS] | 1000 to 30000 nM | 1000 to 30000 nM
CCc1cnccc1-c1cccc([C@H](C)N(CCCC(=O)NCCNS(=O)(=O)NCC(=O)O)S(=O)(=O)c2cccc(Cl)c2C)c1 [Compound 38AA, (S)-2-((N-(2-(4-(3-chloro-N-(1-(3-(3-ethylpyridin-4-yl)phenyl)ethyl)-2-methylphenylsulfonamido)butanamido)ethyl)sulfamoyl)amino)acetic acid] | < 100 nM | < 100 nM
Cc1c(Cl)cccc1S(=O)(=O)N(CCCC(=O)NCCS(=O)(=O)O)C(C)(C)c1cccc(-c2ccncc2CO)c1 [Compound 20AO, 2-(4-(3-chloro-N-(2-(3-(3-(hydroxymethyl)pyridin-4-yl)phenyl)propan-2-yl)-2-methylphenylsulfonamido)butanamido)ethanesulfonic acid] | < 100 nM | 100 to 999 nM
COc1cnccc1-c1cccc(C(C)(C)NS(=O)(=O)c2ccc(Cl)cc2Cl)c1 [Compound 2BG] | < 100 nM | < 100 nM
Cc1cnccc1-c1cccc([C@H](C)NS(=O)(=O)c2ccccc2N)c1 [Compound 10AA, (S)-2-amino-N-(1-(3-(3-methylpyridin-4-yl)phenyl)ethyl)benzenesulfonamide] | 100 to 999 nM | 1000 to 30000 nM
Cc1c(Cl)cccc1S(=O)(=O)N[C@@H](C)c1cccc(-c2ccnnc2)c1 [Compound 1BP] | 100 to 999 nM | 1000 to 30000 nM
COc1cnccc1-c1cccc(C2CN(C(=O)CS(=O)(=O)O)CCN2S(=O)(=O)c2cccc(Cl)c2C)c1 (stereo not shown) [Compound 49AF, 2-(4-((3-chloro-2-methylphenyl)sulfonyl)-3-(3-(3-methoxypyridin-4-yl)phenyl)piperazin-1-yl)-2-oxoethanesulfonic acid] | < 100 nM | < 100 nM
Cc1cnccc1-c1cccc(CCNS(=O)(=O)c2ccccc2C(F)(F)F)c1 [Compound 5BD, N-(3-(3-methylpyridin-4-yl)phenethyl)-2-(trifluoromethyl)benzenesulfonamide] | 100 to 999 nM | 1000 to 30000 nM
COc1cnccc1-c1cccc(C(C)(C)NS(=O)(=O)c2ccccc2N)c1 [Compound 10, 2-amino-N-(2-(3-(3-methoxypyridin-4-yl)phenyl)propan-2-yl)benzenesulfonamide] | 100 to 999 nM | 100 to 999 nM
COC(=O)CS(=O)(=O)NCCOCCNC(=O)CCCCN([C@@H](C)c1cccc(-c2ccncc2C)c1)S(=O)(=O)c1cccc(Cl)c1C [Compound 26AC] | < 100 nM | 100 to 999 nM
Cc1cnccc1-c1cccc(C(C)(C)N(CCCC(=O)NCCN(C)C)S(=O)(=O)c2cccc(Cl)c2C)c1 [Compound 21AD, 4-(3-chloro-2-methyl-N-(2-(3-(3-methylpyridin-4-yl)phenyl)propan-2-yl)phenylsulfonamido)-N-(2-(dimethyl-amino)ethyl)butanamide] | < 100 nM | 100 to 999 nM
CN(C)c1cc(-c2cccc(C(C)(C)NS(=O)(=O)c3ccccc3C(F)(F)F)c2)ccn1 [Compound 6AB, N-(2-(3-(2-(dimethylamino)-pyridin-4-yl)phenyl)propan-2-yl)-2-(trifluoromethyl)benzenesulfonamide] | 1000 to 30000 nM | 1000 to 30000 nM
Cc1cnccc1-c1cccc(C2(NS(=O)(=O)c3cccc(Cl)c3C)COC2)c1 [Compound 7AC, 3-chloro-2-methyl-N-(3-(3-(3-methylpyridin-4-yl)phenyl)oxetan-3-yl)benzenesulfonamide] | < 100 nM | < 100 nM
COC(=O)c1cnccc1-c1cccc(C(C)(C)NS(=O)(=O)c2ccccc2C(F)(F)F)c1 [Compound 6, Methyl 4-(3-(2-(2-(trifluoromethyl)phenylsulfonamido)propan-2-yl)phenyl)nicotinate] | < 100 nM | 1000 to 30000 nM
CCc1cnccc1-c1cc(O)cc(C(C)(C)NS(=O)(=O)c2ccccc2C(F)(F)F)c1 [Compound 22, N-(2-(3-(3-Ethylpyridin-4-yl)-5-hydroxyphenyl)propan-2-yl)-2-(trifluoromethyl)benzenesulfonamide] | < 100 nM | < 100 nM
Cc1cnccc1-c1cccc([C@H](C)N(CCCCC(=O)NCCOCCNC(=O)NCCS(=O)(=O)O)S(=O)(=O)c2cccc(Cl)c2C)c1 [Compound 28AF, (S)-17-((3-chloro-2-methylphenyl)sulfonyl)-18-(3-(3-methylpyridin-4-yl)phenyl)-4,12-dioxo-8-oxa-3,5,11,17-tetraazanonadecane-1-sulfonic acid] | < 100 nM | 100 to 999 nM
